In general, IC50 refers to the concentration that inhibits the measured activity by half. Low values mean inhibition by little substance, high ones a need for much substance.

The record followed here is ChEMBL document CHEMBL4033656, “Organocatalyzed and mechanochemical solvent-free synthesis of novel and functionalized bis-biphenyl substituted thiazolidinones as potent tyrosinase inhibitors: SAR and molecular modeling studies” (Eur J Med Chem, 2017).

The experiment concerns the target Mushroom tyrosinase (Agaricus bisporus, UniProt O42713+Q00024+C7FF04+C7FF05). Briefly: Inhibition of mushroom tyrosinase preincubated for 5 mins followed by addition of […] as substrate measured after 30 mins.

The compound `O=C1CSC(c2ccccc2O)N1c1ccc(-c2ccc(N3C(=O)CSC3c3ccccc3O)cc2)cc1` (stereo not drawn) displayed an IC50 of 0.61 µM.
With `COc1ccc(C2SCC(=O)N2c2ccc(-c3ccc(N4C(=O)CSC4c4ccc(OC)cc4)cc3)cc2)cc1` (stereo not drawn) the figure was 4.41 µM; with `Cc1cc(-c2ccc(N3C(=O)CSC3c3ccccc3)c(C)c2)ccc1N1C(=O)CSC1c1ccccc1` (stereo not drawn), 7.71 µM; with `COc1cc(C2SCC(=O)N2c2ccc(-c3ccc(N4C(=O)CSC4c4ccc(O)c(OC)c4)c(C)c3)cc2C)ccc1O` (stereo not drawn), 2.81 µM.
Consider `O=C1CSC(c2ccc(O)cc2)N1c1ccc(-c2ccc(N3C(=O)CSC3c3ccc(O)cc3)cc2)cc1` (stereo not drawn), for which the IC50 turned out to be 342.52 µM.
The result for `O=C1CSC(c2ccccc2)N1c1ccc(-c2ccc(N3C(=O)CSC3c3ccccc3)cc2)cc1` (stereo not drawn) reads 21.61 µM; that for `COc1cc(C2SCC(=O)N2c2ccc(-c3ccc(N4C(=O)CSC4c4ccc(O)c(OC)c4)cc3)cc2)ccc1O` (stereo not drawn), 2.41 µM.
`Cc1cc(-c2ccc(N3C(=O)CSC3c3ccc(N(C)C)cc3)c(C)c2)ccc1N1C(=O)CSC1c1ccc(N(C)C)cc1` (stereo not drawn) displayed an IC50 of under 500 µM.
